Experimental data reported in US6414019B1, “Synergistic mixtures of selected amino acids” (Agrogene Ltd., priority 1997, dated 2002).
In brackets after ≈: the same amount, converted by molar mass. Several values for one entry are separate records, joined by “and”; a condition that tells them apart may be missing. Equal entries are not always repeated.

Assays:
[1] = tested on: Pseudoperonospora cubensis (resistance to metalaxyl); conditions: in vivo
[2] = tested on: Peronospora tabacina R strain; experiment: Control of downy mildew in tobacco, fungal isolate R (sporulation inhibition); format: in vivo
[3] = tested on: Peronospora tabacina S strain; experiment: Control of downy mildew in tobacco, fungal isolate S (sporulation inhibition); format: in vivo
Plasmopara viticola = conditions: in vivo
[4] = 50 mg/L active ingredient, fungal isolate R, Table 28
[5] = 0.5 mg/L active ingredient, tobacco, fungal isolate S (Table 31)
[6] = 5 mg/L active ingredient, tobacco, fungal isolate S (Table 31)
[7] = 50 mg/L active ingredient, tobacco, fungal isolate S (Table 31)
[8] = 16 mg/L active ingredient, fungal isolate R, Table 29
[9] = 62 mg/L active ingredient, fungal isolate R, Table 29
[10] = 100 mg/L active ingredient, fungal isolate R, Table 30
[11] = 200 mg/L active ingredient, fungal isolate R, Table 30
[12] = 250 mg/L active ingredient, fungal isolate R, Table 29
[13] = 400 mg/L active ingredient, fungal isolate R, Table 30

COCC(=O)N(c1c(C)cccc1C)[C@H](C)C(=O)OC (single isomer, unassigned) [Metalaxyl Single Isomer]
ED90 [1]: 844 µg/mL (≈ 3020 µM)
Percent Disease Control [1]: 0% and 8%

CO/C=C(/C(=O)OC)c1ccccc1Oc1cc(Oc2ccccc2C#N)ncn1 [AZOXYSTROBINE, Azoxystrobin]
Percent Disease Control ([2]; 5 mg/L active ingredient, fungal isolate R, Table 28): 81%
Percent Disease Control ([2]; 10 mg/L active ingredient, fungal isolate R, Table 28): 81%
Percent Disease Control ([2]; 25 mg/L active ingredient, fungal isolate R, Table 28): 81%
Percent Disease Control [2, 4]: 93%
Percent Disease Control ([2]; dose not printed (value stands in the Ratio column), fungal isolate R, Table 28): 13%
ED90 ([2]; fungal isolate R, Table 28): 27 µg/mL (≈ 66.9 µM)

CC(N)CC(=O)O (stereo not drawn) [BABA, DLβ-amino-butanoic acid]
Percent Disease Control [3, 5]: 0%
Percent Disease Control [3, 6]: 27%
Percent Disease Control [3, 7]: 59%
ED90 ([3]; in vivo): 78 µg/mL (≈ 756 µM)
Percent Disease Control [2, 8]: 3%
Percent Disease Control [2, 4]: 0%
Percent Disease Control [2, 9]: 27%
Percent Disease Control ([2]; 100 mg/L active ingredient, fungal isolate R, Table 28): 13%
Percent Disease Control [2, 10]: 37%
Percent Disease Control ([2]; 200 mg/L active ingredient, fungal isolate R, Table 28): 100%
Percent Disease Control [2, 11]: 62%
Percent Disease Control [2, 12]: 51%
Percent Disease Control [2, 13]: 100%
ED90 (Plasmopara viticola): 38 µg/mL and 33 µg/mL and 36 µg/mL and 44 µg/mL

CSC(=O)c1cccc2nnsc12 [BION, Acibenzolar-s-methyl]
Percent Disease Control [3, 5]: 54%
Percent Disease Control [3, 6]: 76%
Percent Disease Control [3, 7]: 85%
ED90 ([3]; tobacco, fungal isolate S (Table 31)): 52 µg/mL (≈ 247 µM)
Percent Disease Control [2, 8]: 76%
Percent Disease Control [2, 9]: 76%
Percent Disease Control [2, 10]: 37%
Percent Disease Control [2, 11]: 50%
Percent Disease Control [2, 12]: 99%
Percent Disease Control [2, 13]: 80%
ED90 ([2]; fungal isolate R, Table 29): 88 µg/mL (≈ 418 µM)
ED90 ([2]; fungal isolate R, Table 30): 443 µg/mL (≈ 2110 µM)
ED90 (Plasmopara viticola): 6 µg/mL (≈ 28.5 µM)

[Cu+2].[OH-].[OH-] [Cu(OH)2, copper hydroxide]
ED90 [1]: 304 µg/mL
Percent Disease Control [1]: 67% and 77% and 80%

CCNC(=O)NC(=O)/C(C#N)=N/OC [Cymoxanil]
Percent Disease Control [2, 10]: 25%
Percent Disease Control [2, 11]: 25%
Percent Disease Control [2, 13]: 62%
ED90 ([2]; in vivo): 596 µg/mL (≈ 3010 µM)

COc1ccc(C(=CC(=O)N2CCOCC2)c2ccc(Cl)cc2)cc1OC [DMN, DIMETHOMORPH]
Percent Disease Control [1]: 32% Control
ED90 (Plasmopara viticola): 19 µg/mL (≈ 49 µM)

O=C1c2ccccc2C(=O)N1SC(Cl)(Cl)Cl [FOLPET, Folpet]
ED90 [1]: 403 µg/mL (≈ 1360 µM)

Cc1ccc(C(C)NC(=O)[C@@H](NC(=O)OC(C)C)C(C)C)cc1 (stereo partly shown) [Fencaramid]
ED90 [1]: 19 µg/mL (≈ 59.3 µM)
Percent Disease Control [1]: 78% and 83% and 95% and 100%

COCC(=O)N(c1c(C)cccc1C)[C@H](C)C(=O)OC [RIDOMILGOLD]
Percent Disease Control [2, 8]: 49%
Percent Disease Control [2, 9]: 37%
Percent Disease Control [2, 10]: 20%
Percent Disease Control [2, 11]: 35%
Percent Disease Control [2, 12]: 58%
Percent Disease Control [2, 13]: 42%
ED90 ([2]; fungal isolate R, Table 29): 416 µg/mL (≈ 1490 µM)
ED90 ([2]; fungal isolate R, Table 30): >1000 µg/mL

Mancozeb
ED90 [1]: 315 µg/mL and 167 µg/mL
